Counter-ions that a name gives are not always drawn. Like-named read-outs stand apart in the source and are kept apart here.
Molecular target: PAF receptor (Oryctolagus cuniculus, UniProt G1TEI7)
Assay: PAF receptor binding assay: inhibition of specific [3H]C18-PAF binding to rabbit platelet membranes
Conditions: 0.6 nM [3H]C18-PAF, 60 min, 22-23 °C, Ki from IC50 (Cheng and Prusoff)
In short: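 Rabbit platelet membranes (10 μg protein) incubated 60 min at 22-23 °C with 0.6 nM [3H]C18-PAF in TME buffer pH 7.0 plus 0.25% BSA; nonspecific binding with 1 μM PAF. Filtered bound radioactivity counted; IC50 by point-to-point evaluation from ≥4 doses in triplicate, Ki by Cheng-Prusoff.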

[1] = read-out: Ki (PAF Receptor Binding Activity)
[2] = Ki (PAF Receptor Binding Activity)

PAF receptor, sequence (G1TEI7 1-342): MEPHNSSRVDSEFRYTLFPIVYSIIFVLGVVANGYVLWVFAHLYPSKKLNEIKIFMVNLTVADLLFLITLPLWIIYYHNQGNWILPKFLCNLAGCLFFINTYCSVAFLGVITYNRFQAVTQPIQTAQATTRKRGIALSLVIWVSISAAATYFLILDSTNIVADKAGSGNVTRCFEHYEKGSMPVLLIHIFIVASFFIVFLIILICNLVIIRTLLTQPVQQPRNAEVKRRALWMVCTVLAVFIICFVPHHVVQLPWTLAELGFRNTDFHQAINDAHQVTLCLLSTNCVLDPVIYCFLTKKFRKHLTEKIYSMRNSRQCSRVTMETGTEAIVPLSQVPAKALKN

Row | Structure (SMILES) | Ki [1] [µM] | Ki [2] [µM]
1 | CC(C)(C)NC(=O)n1cc(C(=O)C2CSC(c3cccnc3)N2)c2ccccc21 (stereo not drawn) [Example 54] | 0.009 | –
2 | CCN(CC)C(=O)n1cc(C(=O)C2CSC(c3cccnc3)N2)c2ccccc21 (stereo not drawn) [Example 48, 1-diethylcarbamoyl-3-[2-(3-pyridinyl)thiazolid-4-oyl]indole] | 0.001 | –
3 | Cc1c(C(=O)C2CSC(c3cccnc3)N2)c2ccccc2n1C(=O)OC(C)(C)C (stereo not drawn) [Example 40, 1-tert-butoxycarbonyl-2-methyl-3-[2-(3-pyridinyl)thiazolid-4-oyl]indole oxalate] | 0.01 | –
4 | O=C(c1cn(CC(F)(F)F)c2ccccc12)C1CSC(c2cccnc2)N1 (stereo not drawn) [Example 59, 1-trifluoroethyl-3-[2-(3-pyridinyl)thiazolid-4-oyl]indole] | – | 0.02
5 | CC(C)(C)OC(=O)n1cc(C(=O)[C@@H]2CS[C@H](c3cccnc3)S2)c2ccccc21 (relative stereo) [Example 29, cis-1-tert-butoxycarbonyl-3-[2-(3-pyridinyl)dithiolan-4-oyl]indole hydrochloride] | 0.18 | –
6 | CCn1cc(C(=O)C2CSC(c3cccnc3)N2)c2ccccc21 (stereo not drawn) [Example 27, 1-ethyl-3-[2-(3-pyridinyl)thiazolid-4-oyl]indole oxalate] | – | 0.006
7 | O=C(C1CSC(c2cccnc2)N1)n1ccc2c(Br)cccc21 (stereo not drawn) [Example 6, 1-[2-(3-pyridinyl)thiazolid-4-oyl]-4-bromoindole dihydrochloride] | – | 0.053
8 | COc1cc(C(=O)c2cccc3c2ccn3C(=O)C2CSC(c3cccnc3)N2)cc(OC)c1OC (stereo not drawn) [Example 8, 1-[2-(3-pyridinyl)thiazolid-4-oyl]-4-(3,4,5-trimethoxybenzoyl)indole] | 0.004 | –
9 | O=C(c1c[nH]c2cc(O)ccc12)C1CSC(c2cccnc2)N1 (stereo not drawn) [Example 88, 3-[2-(3-pyridinyl)thiazolid-4-oyl]-6-hydroxyindole] | – | 0.15
10 | O=C(c1c[nH]c2c(OCc3ccccc3)cccc12)C1CSC(c2cccnc2)N1 (stereo not drawn) [Example 50, 7-phenylmethoxy-3-[2-(3-pyridinyl)thiazolid-4-oyl]indole] | 0.001 | –
11 | O=C(c1c[nH]c2ccc(OCc3ccccc3)cc12)C1CSC(c2cccnc2)N1 (stereo not drawn) [Example 23, 3-(2-(3-pyridinyl)thiazolid-4-oyl])-5-phenylmethoxyindole oxalate] | 0.023 | –
12 | CC(C)(C)OC(=O)n1cc(C(O)C2CSC(c3cccnc3)N2)c2ccccc21 (stereo not drawn) [Example 114, [2-(3-pyridinyl)thiazolid-4-yl](1-tert-butoxycarbonylindol-3-yl)methanol] | 0.043 | –
13 | CN(C)C(=O)n1cc(C(=O)C2CSC(c3cccnc3)N2)c2cccc(OCc3ccccc3)c21 (stereo not drawn) [Example 51, 1-dimethylcarbamoyl)-7-phenylmethoxy-3-[2-(3-pyridinyl)thiazolid-4-oyl]indole oxalate] | 0.013 | –
14 | CN(C)C(=O)n1cc(C(=O)C2CSC(c3cccnc3)N2)c2ccccc21 (stereo not drawn) [Example 38] | 0.001 | –
15 | O=C(c1c[nH]c2cccc(OCc3ccccc3)c12)C1CSC(c2cccnc2)N1 (stereo not drawn) [Example 24, 3-[2-(3-pyridinyl)thiazolid-4-oyl-4-phenylmethoxyindole oxalate] | 0.013 | –
16 | CS(=O)(=O)n1cc(C(=O)C2CSC(c3cccnc3)N2)c2ccccc21 (stereo not drawn) [Example 37, 1-methylsulfonyl-3-[2-(3-pyridinyl)thiazolid-4-oyl-]indole] | – | 0.015
17 | CC(C)(C)OC(=O)n1cc(C(=O)C2CSC(c3cccnc3)N2C(N)=O)c2ccccc21 (stereo not drawn) [Example 58, 1-tert-butoxycarbonyl-3-[2-(3-pyridinyl)-3-carbamoylthiazolid-4-oyl]indole] | 0.54 | –
18 | O=C(c1cn(S(=O)(=O)c2ccccc2)c2ccccc12)C1CSC(c2cccnc2)N1 (stereo not drawn) [Example 36, 1-phenylsulfonyl-3-[2-(3-pyridinyl)thiazolid-4-oyl]indole] | 0.03 | –
19 | O=C(c1ccccc1)c1ccc2ccn(C(=O)C3CSC(c4cccnc4)N3)c2c1 (stereo not drawn) [Example 17, 1-[2-(3-pyridinyl)thiazolid-4-oyl]-6-benzoylindole] | 0.093 | –
20 | CN(C)C(=O)n1cc(C(=O)C2CSC(c3cccnc3)N2)c2ccc(OCc3ccccc3)cc21 (stereo not drawn) [Example 52, 1-dimethylcarbamoyl-6-phenylmethoxy-3-[2-(3-pyridinyl)thiazolid-4-oyl]indole] | 0.001 | –
21 | O=C(C1CSC(c2cccnc2)N1)n1ccc2cc(OCc3ccccc3)ccc21 (stereo not drawn) [Example 1, 1-[2-(3-pyridinyl)thiazolid-4-oyl]-5-phenylmethoxyindole] | 0.007 | –
22 | COC(=O)c1ccc2c(C(=O)C3CSC(c4cccnc4)N3)c[nH]c2c1 (stereo not drawn) [Example 122, 3-[2-(3-pyridinyl)thiazolid-4-oyl]-6-carbomethoxyindole] | – | 0.4
23 | Cc1ccc2[nH]c(C)c(C(=O)C3CSC(c4cccnc4)N3)c2c1 (stereo not drawn) [Example 66, 2,5-dimethyl-3-[2-[3-pyridinyl)thiazolid-4-oyl]indole oxalate] | – | 0.031
24 | O=C(C1CSC(c2cccnc2)N1)n1ccc2ccc(Br)cc21 (stereo not drawn) [Example 16, 1-[2-(3-pyridinyl)thiazolid-4-oyl]-6-bromoindole] | – | 0.025
25 | CC(C)(C)OC(=O)n1cc(C(=O)C2CSC(c3cccnc3)N2)c2ccccc21 (stereo not drawn) [Example 28, 1-tert-butoxycarbonyl-3-[2-(3-pyridinyl)thiazolid-4-oyl]indole oxalate] | 0.002 | –

Continued, in another order:

Row | Ki [1] [µM] | Structure (SMILES) | Ki [2] [µM]
26 | 18 | CC(=O)N1C(C(=O)c2c[nH]c3ccccc23)CSC1c1cccnc1 (stereo not drawn) [Example 98, 3-[2-(3-pyridinyl)-3-acetylthiazolid-4-oyl]indole] | –
27 | 0.004 | CN(C)C(=O)n1cc(C(=O)C2CSC(c3cccnc3)N2)c2ccc(-c3ccccc3)cc21 (stereo not drawn) [Example 87, 1-dimethylcarbamoyl-3-[2-(3-pyridinyl)thiazolid-4-oyl]-6-phenylindole] | –
28 | 0.015 | O=C(c1c[nH]c2cc(-c3ccccc3)ccc12)C1CSC(c2cccnc2)N1 (stereo not drawn) [Example 86, 3-[2-(3-pyridinyl)-thiazolid-4-oyl]-6-phenylindole] | –
29 | 0.65 | CN(C)C(=O)n1cc(C(=O)[C@@H]2CS[C@H](c3cccnc3)N2C(=O)C(F)(F)F)c2ccccc21 (relative stereo) [Example 104, cis-1-dimethylcarbamoyl-3-[2-(3-pyridinyl)-3-trifluoroacetylthiazolid-4-oyl]indole] | –
30 | 0.009 | O=C(c1c[nH]c2cc(C#Cc3ccccc3)ccc12)C1CSC(c2cccnc2)N1 (stereo not drawn) [Example 77, 3-[2-(3-pyridinyl)thiazolid-4-oyl]-6-phenylethynylindole] | –
31 | 0.018 | CCS(=O)(=O)n1cc(C(=O)C2CSC(c3cccnc3)N2)c2ccccc21 (stereo not drawn) [Example 62, 1-ethylsulfonyl-3-[2-(3-pyridinyl)thiazolid-4-oyl]indole] | –
32 | 0.016 | Cc1[nH]c2cc(OCc3ccccc3)ccc2c1C(=O)C1CSC(c2cccnc2)N1 (stereo not drawn) [Example 79, 2-methyl-3-[2-(3-pyridinyl)thiazolid-4-oyl]-6-phenylmethoxyindole] | –
33 | 1.4 | CN(C)C(=O)n1cc(C(=O)C2CSC(c3cccnc3)N2C(N)=O)c2ccccc21 (stereo not drawn) [Example 110, 1-dimethylcarbamoyl-3-[2-(3-pyridinyl)-3-carbamoylthiazolid-4-oyl]indole] | –
34 | 2.2 | CC(=O)N1C(C(=O)c2cn(C(=O)N(C)C)c3cc(OCc4ccccc4)ccc23)CSC1c1cccnc1 (stereo not drawn) [Example 101, oxalate] | –
35 | 3.3 | CN(C)C(=O)n1cc(C(=O)C2C[S+]([O-])C(c3cccnc3)N2C=O)c2ccccc21 (stereo not drawn) [Example 95, 1-dimethylcarbamoyl-3-[1-oxide,2-(3,pyridinyl)-3-formylthiazolid-4-oyl]indole] | –
36 | 0.08 | CN(C)C(=O)n1cc(C(=O)[C@@H]2CS[C@@H](c3cccnc3)N2C(=O)C(F)(F)F)c2ccccc21 (relative stereo) [Example 106, trans-1-dimethylcarbamoyl-3-[2-(3-pyridinyl)-3-trifluoroacetylthiazolid-4-oyl]indole] | –
37 | 0.25 | CN(C)C(=O)n1cc(C(=O)C2CSC(c3cccnc3)N2C(=O)C(F)(F)F)c2ccc(OCc3ccccc3)cc21 (single isomer, unassigned; isomer 1) [Example 108, 1-dimethylcarbamoyl-3-[2-(3-pyridinyl)-3-trifluoroacetylthiazolid-4-oyl]-6-phenylmethoxyindole, isomer 1] | –
38 | 0.009 | Cc1c(C(=O)C2CSC(c3cccnc3)N2)c2ccccc2n1C(=O)N(C)C (stereo not drawn) [Example 65, 1-dimethylcarbamoyl-2-methyl-3-[2-(3-pyridyl)thiazolid-4-oyl]indole] | –
39 | 0.002 | O=C(c1c[nH]c2cc(Oc3ccc(F)cc3)ccc12)C1CSC(c2cccnc2)N1 (stereo not drawn) [Example 70, 3-[2-(3-pyridinyl)thiazolid-4-oyl]-6-(4-fluorophenoxy)indole] | –
